Some test systems named below: COLO 205 colon; DU-145 prostate; HT29 colon; M14 melanoma; NCI-H460 lung; PC-3 prostate; RPMI-8226 leukemia; UACC-62 melanoma; UO-31 renal; HOP-92 NSCLC.
Assay in all cases: growth of human tumour cells (NCI), 48 h

The structures appear in SMILES notation.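 A five-concentration, 48-hour dose response in 96-well plates underlies each endpoint, interpolated linearly between surrounding concentrations. GI50 marks 50% less growth. TGI marks complete inhibition of growth.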 *1 amine or outer side, *2 acyl side, *3 side chain or, on linkers, in order; H or OH if unused. Where a SMILES comes first, the peptide text is derived from it. CO = O=C([*:1])[*:2]

Our source for the GI50 and TGI values is PubChem BioAssay (NCI).

For `CC1=C([Se]CC(OC(=O)[C@@H](CSSC(C)(C)C)NC(=O)C(C)(C)C)C(=O)NCCCCCC(=O)OCc2ccccc2)C(=O)c2ccccc2C1=O` (some centres not stated), the GI50 with COLO 205 colon is 1.8 µM; in the assay on DU-145 prostate, 2.13 µM; in the assay with HT29 colon, 2.69 µM; in the assay on M14 melanoma, 2.05 µM; in the assay on NCI-H460 lung, 0.637 µM; in the assay on PC-3 prostate, 1.5 µM. The GI50 with RPMI-8226 leukemia is 2.33 µM; with UACC-62 melanoma it was 1.96 µM; in the assay on UO-31 renal, 1.47 µM. In addition, the TGI is 3.47 µM in the assay with COLO 205 colon; 4.51 µM with DU-145 prostate; 7.34 µM in the assay on HT29 colon; 4.04 µM in the assay with M14 melanoma; 2.52 µM in the assay on NCI-H460 lung; 3.63 µM in the assay on PC-3 prostate. Further, the TGI in the assay on RPMI-8226 leukemia worked out at 6.74 µM; with UACC-62 melanoma, 3.99 µM; in the assay with UO-31 renal it was 3.16 µM.

As for `CCCN1C(=O)/C(=C/c2ccc(O)cc2)SC1=Nc1ccccc1`, the GI50 with COLO 205 colon is 22.7 µM; in the assay with DU-145 prostate, 17.4 µM; with HOP-92 NSCLC, 20.3 µM; in the assay on HT29 colon it was 33.5 µM; in the assay with M14 melanoma it was 48.7 µM; in the assay with NCI-H460 lung, 15.2 µM. In addition, the GI50 was 28.9 µM with PC-3 prostate, 21 µM in the assay on UACC-62 melanoma and 38.3 µM in the assay on UO-31 renal. Also, the TGI in the assay on COLO 205 colon was 51.3 µM; in the assay on DU-145 prostate, 40.8 µM; with HOP-92 NSCLC it was 46.5 µM; with HT29 colon, 86.7 µM; in the assay on M14 melanoma it was over 100 µM; in the assay on NCI-H460 lung, 29.9 µM. The figures for the TGI in the assay on PC-3 prostate, with UACC-62 melanoma and in the assay on UO-31 renal were 59.8 µM, 45.3 µM and over 100 µM, respectively.

`CC(C)C(NC(=O)C(CCCN=C(N)N)NC(=O)NC(Cc1ccccc1)C(=O)O)C(=O)NC(C=O)CCCN=C(N)N` (stereo not drawn) ({Phe-CO}-Arg-Val-Arg-aldehyde; configuration not given here): the GI50 with COLO 205 colon, with DU-145 prostate, in the assay with HT29 colon, in the assay on M14 melanoma, in the assay with NCI-H460 lung and with PC-3 prostate was over 5 µM throughout. Moreover, the GI50 in the assay on UACC-62 melanoma and in the assay on UO-31 renal was over 5 µM in each case. The TGI in the assay with COLO 205 colon, in the assay with DU-145 prostate, in the assay on HT29 colon, with M14 melanoma, in the assay on NCI-H460 lung and in the assay on PC-3 prostate was over 5 µM throughout. Also, the TGI with UACC-62 melanoma and in the assay with UO-31 renal was over 5 µM each time.

Regarding `CCCCCCCCO/N=C\c1c2c(O)c3c(O)c(C)c4c(c3c1O)C(=O)C(C)(O/C=C\C(OC)C(C)C(OC(C)=O)C(C)C(O)C(C)C(O)C(C)/C=C\C=C(\C)C(=O)N2)O4` (configuration not stated), the GI50 in the assay on COLO 205 colon was 1.35 µM; in the assay with DU-145 prostate it was 1.8 µM; in the assay on HOP-92 NSCLC, 1.38 µM; in the assay with M14 melanoma, 1.57 µM; in the assay on NCI-H460 lung it was 0.998 µM; with PC-3 prostate it was 1.82 µM. Moreover, the GI50 in the assay on RPMI-8226 leukemia is 2.21 µM; in the assay with UACC-62 melanoma it was 1.02 µM. For the same molecule, the TGI in the assay with COLO 205 colon worked out at 3.59 µM; with DU-145 prostate it was 6.93 µM; with HOP-92 NSCLC, 5.32 µM; with M14 melanoma it was 5.4 µM; with NCI-H460 lung it was 2.14 µM; with PC-3 prostate, 7.02 µM. In addition, the TGI with RPMI-8226 leukemia was 8.43 µM; in the assay with UACC-62 melanoma, 2.92 µM.

For `COc1cc(-c2ccc(-[n+]3nc(-c4ccc([N+](=O)[O-])cc4)nn3-c3ccc([N+](=O)[O-])cc3)c(OC)c2)ccc1-[n+]1nc(-c2ccc([N+](=O)[O-])cc2)nn1-c1ccc([N+](=O)[O-])cc1`, the GI50 in the assay on DU-145 prostate was 2.9 µM; in the assay on HT29 colon it was 3.43 µM; in the assay on M14 melanoma, 14.9 µM; in the assay with NCI-H460 lung, 3.02 µM; with PC-3 prostate, 12.8 µM; in the assay with RPMI-8226 leukemia, 10.1 µM. Moreover, the figures for the GI50 in the assay with UACC-62 melanoma and with UO-31 renal were 22 µM and 6.28 µM, respectively. Also, the TGI in the assay with DU-145 prostate was determined as 9.29 µM; with HT29 colon it was 15.2 µM; in the assay with M14 melanoma it was 67.2 µM; with NCI-H460 lung it was 11.1 µM; in the assay with PC-3 prostate, 36.5 µM; with RPMI-8226 leukemia it was 67.8 µM. In addition, the values for the TGI in the assay with UACC-62 melanoma and with UO-31 renal were over 82.8 µM and 27.8 µM, respectively.

For `Cc1cccc(Oc2ccc(Nc3ncnc4ccc(NC(=O)CN5CCN(C)CC5)cc34)cc2Cl)c1`, the GI50 in the assay with DU-145 prostate is 1.18 µM; in the assay on HOP-92 NSCLC, 1.17 µM; with M14 melanoma, 1.72 µM; in the assay on NCI-H460 lung, 1.75 µM; in the assay with PC-3 prostate, 1.78 µM; with RPMI-8226 leukemia, 1.76 µM. In addition, the GI50 with UACC-62 melanoma is 1.84 µM; with UO-31 renal it was 1.1 µM. In addition, the TGI in the assay on DU-145 prostate came to 2.57 µM; in the assay with HOP-92 NSCLC, 2.59 µM; in the assay with M14 melanoma it was 3.38 µM; with NCI-H460 lung it was 3.28 µM; with PC-3 prostate it was 3.52 µM; with RPMI-8226 leukemia, 4.39 µM. The figures for the TGI in the assay with UACC-62 melanoma and in the assay on UO-31 renal were 3.56 µM and 2.35 µM, respectively.

Regarding `C/C=C/C/C=C/CCC(=O)C1OC1C(N)=O` (configuration not stated), the TGI with COLO 205 colon stood at 33.5 µM; in the assay on DU-145 prostate, 31.3 µM; with HOP-92 NSCLC it was 29.4 µM; with HT29 colon, 33.1 µM; in the assay with M14 melanoma, 29.2 µM; in the assay with NCI-H460 lung, 25.4 µM. In addition, the TGI with PC-3 prostate stood at 28.7 µM; with UACC-62 melanoma it was 29.3 µM; with UO-31 renal it was 29.5 µM.

As for `N#Cc1c(N)nc(N2CCOCC2)c(C#N)c1-c1cccc(O)c1`, the GI50 was 69.3 µM in the assay with COLO 205 colon; over 100 µM in the assay with DU-145 prostate; 37.6 µM with HOP-92 NSCLC; over 100 µM in the assay on HT29 colon; over 100 µM in the assay with M14 melanoma; 93.2 µM in the assay with NCI-H460 lung. Further, the GI50 is 46.9 µM in the assay with PC-3 prostate, 48.7 µM in the assay on RPMI-8226 leukemia and 40.8 µM in the assay with UACC-62 melanoma. Besides, the TGI in the assay with COLO 205 colon, in the assay on DU-145 prostate, with HOP-92 NSCLC, in the assay with HT29 colon, with M14 melanoma and with NCI-H460 lung was over 100 µM in each case. For the same molecule, the TGI with PC-3 prostate, in the assay on RPMI-8226 leukemia and in the assay on UACC-62 melanoma was over 100 µM throughout.
